Assay results as given in patent publication US6498163B1, “Pyrido[2,3-D]pyrimidines and 4-aminopyrimidines as inhibitors of cellular proliferation” (Warner-Lambert Company, priority 1997, dated 2002).

Target: c-Src (Homo sapiens, UniProt P12931)
Experiment: c-Src protein kinase assay
Type: biochemical
Details: Table 5
Protocol: Several of the invention compounds have been evaluated in a standard assay to measure their ability to inhibit cellular Src protein kinase (c-Src). […] The assay was carried out as follows:
C-Src kinase was purified from baculovirus infected insect cell lysates using an antipeptide monoclonal antibody directed against the N-terminal amino acids (amino acids 2-17) of c-Src. The antibody, covalently linked to 0.65 μm latex beads, was added to a suspension of insect cell lysis buffer comprised of 150 mM NaCl, 50 mM Tris pH 7.5, 1 mM DTT, 1% NP-40, 2 mM EGTA, 1 mM sodium vanadate, 1 mM PMSF, 1 μg/mL each of leupeptin, pepstatin, and aprotinin. Insect cell lysate containing c-Src protein was incubated with these beads for 3 to 4 hours at 4° C. with rotation. At the end of the lysate incubation, the beads were rinsed three times in lysis buffer, resuspended in lysis buffer containing 10% glycerol, and frozen. These latex beads were thawed, rinsed three times in assay buffer (40 mM Tris, pH 7.5, 5 mM […]) and suspended in the same buffer. […] The filters were then punched, counted in a liquid scintillation counter, and the data examined for inhibitory activity in comparison to a known inhibitor such as erbstatin. […]

Sequence of c-Src (P12931 whole entry, species assumed): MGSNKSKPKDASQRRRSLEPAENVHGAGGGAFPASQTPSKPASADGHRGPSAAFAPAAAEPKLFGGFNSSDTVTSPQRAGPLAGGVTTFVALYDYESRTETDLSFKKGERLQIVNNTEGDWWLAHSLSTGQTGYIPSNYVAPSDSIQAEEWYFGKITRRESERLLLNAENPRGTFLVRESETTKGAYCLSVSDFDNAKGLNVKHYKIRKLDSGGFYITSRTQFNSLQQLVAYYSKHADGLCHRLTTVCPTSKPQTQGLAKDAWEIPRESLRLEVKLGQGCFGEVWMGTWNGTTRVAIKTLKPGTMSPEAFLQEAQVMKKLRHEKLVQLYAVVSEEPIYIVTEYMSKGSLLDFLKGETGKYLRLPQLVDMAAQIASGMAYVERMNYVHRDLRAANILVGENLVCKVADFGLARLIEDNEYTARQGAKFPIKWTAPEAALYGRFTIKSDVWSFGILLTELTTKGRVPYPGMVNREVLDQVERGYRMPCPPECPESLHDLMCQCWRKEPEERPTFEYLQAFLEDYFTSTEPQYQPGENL

- IC50: 1850 nM
SMILES: CC1CN(c2ccc(Nc3ncc4ccc(=O)n(C5CCCCC5)c4n3)cc2)CC(C)N1CCO (stereo not shown) [Example 143, 8-Cyclohexyl-2-{4-[4-(2-hydroxy-ethyl)-3,5-dimethyl-piperazin-1-yl]-phenylamino}-8H-pyrido[2,3-d]pyrimidin-7-one]
